# Entries after “also recorded” stand apart in the source; their conditions may differ. Where two headings read alike, the source gives them in different places.
# What was measured:
# [1] = tested on: TC-PTP (TCPTP1-317; TCPTP292 in FIG. 12); assay: TC-PTP-catalyzed hydrolysis of pNPP in the presence of terpenoids; format: biochemical, H. sapiens; conditions: PTP1B321 vs TCPTP292 / TC-PTP, pNPP
# Experimental: (§1) Enzyme kinetics. To examine terpenoid-mediated inhibition, we measured PTP-catalyzed hydrolysis of p-nitrophenyl phosphate (pNPP) or 4-methylumbelliferyl phosphate (4-MUP, used when KM for pNPP was large) in the presence of various concentrations of terpenoids. Each reaction included PTP (0.05 μM PTP1B/TCPTP or 0.1 μM SHP1/SHP2 in 50 mM HEPES, 0.5 mM TCEP, 50 μg/ml BSA), pNPP (0.33, 0.67, 2, 5, 10, and 15 mM) or 4-MUP (0.13, 0.27, 0.8, 2.27, 2.93, 4.53, 7.07, and 8 mM), inhibitor (with concentrations listed in the figures), buffer (50 mM HEPES pH=7.3, 50 μg/ml BSA), and DMSO at 10% v/v. We monitored the formation of p-nitrophenol by measuring absorbance at 405 nm every 10 seconds for 5 minutes on a SpectraMax M2 plate reader and the formation of 4-methylumbelliferyl by measuring fluorescence at 450 nm (370 nm ex, 435 nm cutoff, medium gain).
# (§2) We used a custom MATLAB script to process all raw kinetic data. This script removed all concentration values that fell outside of either (i) the range of our standard curve (absorbance/fluorescence vs. μM; FIG. 39) or (ii) the initial rate regime (>10% of the pNPP or 4-MUP concentration used in the assay). When this step reduced kinetic dataset to fewer than ten points, we re-measured those datasets to collect at least ten. We fit final datasets, in turn, with a linear regression model (using Matlab's backslash operator).
# (§3) We evaluated kinetic models in three steps: (i) We fit initial-rate measurements collected in the absence and presence of inhibitors to Michaelis-Menten and inhibition models, respectively (here, we used the nlinfit and fminsearch functions from MATLAB; TABLE 12). (ii) We used an F-test to compare the mixed model to the single-parameter model with the least sum squared error (here, we used the fedf function from MATLAB to assign p-values), and we accepted the mixed model when p<0.05. (iii) We used the Akaike's Information Criterion (AIC) to compare the best-fit single parameter model to each alternative single parameter model, and we accepted the “best-fit” model when the difference in AIC (Δi) exceed 5 for all comparisons.^78 We note: For AD, AB, and (+) 1-(10),4-cadinadiene this criterion was not met; both noncompetitive and uncompetitive models, however, yielded indistinguishable ICso's.
# (§4) We used the MATLAB function “nlparci” to determine the confidence intervals of kinetic parameters, and we propagated those intervals to estimate corresponding confidence intervals for each IC50.
# [2] = tested on: insulin receptor (IR) phosphorylation (PTP1B-mediated) in HEK293T/17 cells; assay: ELISA of insulin receptor (IR) phosphorylation in HEK293T/17 cells; format: cell-based; conditions: for IR phosphorylation (ELISA signal): 3% DMSO, 10 minutes, starved HEK293T/17 cells, vs 3% DMSO control; for Δμ, null hypothesis compound-(−) = 0: difference of means vs negative control (−)
# Source text: Analysis of PTP1B inhibition in HEK293TCells. We prepared HEK293T/17 cells for an enzyme-linked immunosorbent assay (ELISA) by growing them in 75 cm^2 culture flasks (Corning) with DMEM media supplemented with 10% FBS, 100 units/ml penicillin, and 100 units/ml streptomycin. We replaced the media every day for 3-5 days until the cells reached 80-100% confluency.
# We measured the influence of inhibitors on insulin receptor (IR) phosphorylation by using an IR-specific ELISA (FIG. 35). Briefly, we starved cells for 48 hours in FBS-free media and incubated the with inhibitors (all at 3% DMSO) for 10 minutes. After incubation, we lysed cells with lysis buffer (9803, Cell Signaling Technology) supplemented with 1× halt phosphatase inhibitor cocktail and 1× halt protease inhibitor cocktail (Thermo Fisher Scientific) for 10 min, pelleted the cell debris, and used the lysis buffer to dilute each sample to 60 mg/ml total protein. We measured IR phosphorylation in subsequent dilutions of the 60 mg/ml samples with the PathScan® Phospho-Insulin Receptor β (panTyr) Sandwich ELISA Kit (Cell Signaling Technology; #7082).
# Statistical analysis and reproducibility. We determined statistical significance (FIG. 23H) with a two-tailed Student's t-test (details in TABLE 14), and we used an F-test to compare one- and two-parameter models of inhibition (TABLE 12).
# PTP1B = biological target: T1, PTP1B (Homo sapiens, UniProt P18031); format: cell-based, H. sapiens; conditions: terpenoid produced in the cell by its metabolic pathway
# T1 construct: In this study, we used a well-studied truncation variant (i.e., PTP1B1-321); His-tag; made in house; host or cells: E. coli BL21 (DE3), pET21b
# T1 sequence (P18031 1-321): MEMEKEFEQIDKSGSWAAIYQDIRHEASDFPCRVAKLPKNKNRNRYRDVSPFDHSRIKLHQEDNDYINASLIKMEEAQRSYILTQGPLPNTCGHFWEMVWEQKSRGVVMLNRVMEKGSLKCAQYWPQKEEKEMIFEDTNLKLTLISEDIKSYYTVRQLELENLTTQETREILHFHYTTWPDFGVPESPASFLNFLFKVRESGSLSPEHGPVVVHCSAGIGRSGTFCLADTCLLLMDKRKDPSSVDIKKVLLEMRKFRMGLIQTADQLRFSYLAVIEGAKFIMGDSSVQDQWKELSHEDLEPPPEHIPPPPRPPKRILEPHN
# [3] = biological target: T2, PTP1B1-281 (PTP1B282 in FIG. 12) (Homo sapiens, UniProt P18031); assay: pNPP hydrolysis by PTP1B lacking the α7 helix; format: biochemical, H. sapiens; conditions: for Ki: PTP1B1-281
# T2 construct: made in house; host or cells: E. coli BL21 (DE3)
# T2 sequence (P18031 1-281): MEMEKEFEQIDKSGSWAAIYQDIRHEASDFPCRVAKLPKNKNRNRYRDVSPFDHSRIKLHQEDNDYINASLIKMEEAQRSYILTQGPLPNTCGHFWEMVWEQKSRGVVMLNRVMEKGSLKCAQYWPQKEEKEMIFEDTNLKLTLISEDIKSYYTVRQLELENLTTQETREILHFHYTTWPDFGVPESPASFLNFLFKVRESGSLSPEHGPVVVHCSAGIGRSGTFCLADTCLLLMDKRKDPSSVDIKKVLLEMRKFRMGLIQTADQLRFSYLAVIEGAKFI
# Experimental: as §1, §2, §3, §4
# [4] = FIG. 3h, t-test, unequal variance
# [5] = competitive model of inhibition, read-out: Fit par. Ki, competitive model
# [6] = mixed model, competitive constant, read-out: Fit par. Ki,c, mixed model
# [7] = mixed model, uncompetitive constant, read-out: Fit par. Ki,u, mixed model
# [8] = noncompetitive model of inhibition, read-out: Fit par. Ki, noncompetitive model
# [9] = uncompetitive model of inhibition, read-out: Fit par. Ki, uncompetitive model
Structure (SMILES),potency against PTP1B relative to TC-PTP (selectivity from IC50's) [1],potency against PTP1B relative to TC-PTP (selectivity from IC50's) ([1]; listed as AD),IR phosphorylation (ELISA signal) ([2]; 930 μM),"IR phosphorylation (ELISA signal) ([2]; 930 μM, listed as AD)","IR phosphorylation (ELISA signal) ([2]; 930 μM, listed as Amorphadiene)","Δμ, null hypothesis AD-DHA = 0 ([2]; difference of means AD vs DHA, FIG. 3h, t-test, unequal variance)","Δμ, null hypothesis compound-(−) = 0 [2, 4]",survival of E. coli with PTP1B B2H system on spectinomycin (PTP1B),"Ki [3, 5] [µM]","Ki [3, 6] [µM]","Ki [3, 7] [µM]","Ki [3, 8] [µM]","Ki [3, 9] [µM]","potency against PTP1B282 (no α7 helix) relative to PTP1B321 ([3]; pNPP, less potent on PTP1B282)",potency against PTP1B relative to TC-PTP (selectivity from IC50's) ([1]; listed as AB),IR phosphorylation (ELISA signal) ([2]; 405 μM),"IR phosphorylation (ELISA signal) ([2]; 405 μM, listed as AB)","Δμ, null hypothesis AB-ABOL = 0 ([2]; difference of means AB vs ABOL, FIG. 3h, t-test, unequal variance)"
C=C(C)[C@@H]1CC[C@@H](C)[C@@H]2CCC(C)=C[C@@H]21 [amorphadiene],~ five-fold; also recorded: much more potently,five- to six-fold,inhibit PTP1B inside of a HEK293T/17 cell; also recorded: can increase IR phosphorylation over a negative control,increased IR phosphorylation over a negative control,stimulate IR phosphorylation,0.124,0.212,permitted survival at high concentrations of antibiotic,37.9,157,271,244,210,~ four-fold,–,–,–,–
CC(C)=CCC=C(C)C1CC=C(C)CC1 (stereo not drawn) [α-bisabolene],much more potently,–,–,–,–,–,0.310,permitted survival at high concentrations of antibiotic,6.51,39,47.7,46.3,40,–,five- to six-fold,stimulate IR phosphorylation; also recorded: can increase IR phosphorylation over a negative control,increased IR phosphorylation over a negative control,0.309
